# Assay results: patent publication US12280039B2, “Cancer vaccine compositions and methods of use thereof” (priority 2018, dated 2025)
# System: live 4T1 tumor cells
# Assay: Serum IgG antibody binding to live 4T1 tumor cells
# Assay type: in vivo, mice
# Conditions: inactivated 4T1 vaccine day 1 and 14; serum 1:1000 dilution
# Experimental: The vaccines were given subcutaneously in equal volumes in both the left and right forelimb of the mice, close to the foot. Mice received 1.7×10^6 cells per mouse per vaccine. Vaccines were given on day 1 and then again on day 14. Mice were euthanized 8 days after the booster vaccine was given and spleen and blood was collected. The serum from these mice was screened against live 4T1 tumor cells for IgG antibody binding by incubating serum with the cells at either a 1:500 or a 1:1000 dilution, staining with a fluorescently-labeled donkey anti-mouse secondary antibody, then subtracting out the background staining (normal mouse serum at 1:500 and 1:1000).
compound,measurement,value
"CC(C)Cn1cnc2c(N)nc3ccccc3c21 [Imiquimod, imiquimod]",serum IgG binding to live 4T1 cells (staining),variable amounts
